Reference: US9120761B2, “Selective FAK inhibitors” (priority 2011, dated 2015)
Read-outs that look alike come from different tables or passages of the source.

How the values were obtained:
MDA-231-LNA cells = experiment: 2D cellular proliferation assay; format: cell-based; conditions: 72 h, 3 days incubation, resazurin
[1] = biological target: N-terminally GST-fused purified FAK enzyme (Homo sapiens (Human), UniProt Q05397); experiment: FAK Biacore SPR assay; format: binding
Experimental: Binding parameters of compounds were determined using a Biacore™ S51 sensor. An anti-GST antibody was immobilized onto a CM5 chip by primary amine-coupling in accordance with the manufacturer's recommendations.
Concentration series' of the test compounds were injected over the spots at 25° C.
After the injection cycle of a compound the chip surface was regenerated with 10 mM glycine-HCl, pH2.2 before capturing the enzyme again.

[2] = biological target: FAK enzyme (catalytic domain, amino acids 411-686) (Homo sapiens (Human), UniProt Q05397); experiment: FAK biochemical Alpha Screen assay; conditions: 80 μM ATP
[3] = biological target: VEGFR3 cytoplasmic domain (Homo sapiens, UniProt P35916, DEL949-1002); experiment: VEGFR3 biochemical assay (Alpha Screen); conditions: modified form (*): N-terminal Hexa-His-fusion protein, amino acids 818-1177 lacking 949-1002
MDA-231-LNA tumours = experiment: Combination study efficacy and tolerability with dasatinib, IMFP MDA-231-LNA tumours; format: in vivo; conditions: Compound 3 40 mg/kg p.o. BID, dasatinib 30 mg/kg p.o. BID; Balb/c SCID mice, MDA-231-LNA primary tumour
Experimental: Treatment commenced when tumours were palpable (day 9 post cell injection) and continued for the duration of the experiment. The formulations used were the same as those above, with the vehicle (I-IPMC-SV, 0.2 ml), being administered as a control.
As additional markers of potential hepatotoxicity, liver weight at harvest as well as alanine aminotransferase (ALT) and aspartate transaminase (AST) levels were determined in plasma 12 hours after the final dose of drug.

[4] = biological target: VEGFR3 cytoplasmic domain (Homo sapiens, UniProt P35916); experiment: VEGFR3 biochemical assay (Alpha Screen); conditions: N-terminal GST-fusion protein (amino acids 798-1298), 500 μM ATP
FAK = FAK (Homo sapiens (Human), UniProt Q05397); conditions: in vitro; cited from earlier work
[5] = system: taxane-sensitive (SKOV3ip1 and HeyA8) and taxane-resistant (HeyA8-MDR) ovarian cancer cell lines; conditions: cited from earlier work
[6] = system: HeyA8, SKOV3ip1, and HeyA8-MDR models; conditions: cited from earlier work

FAK enzyme (catalytic domain, amino acids 411-686), sequence (Q05397 411-686): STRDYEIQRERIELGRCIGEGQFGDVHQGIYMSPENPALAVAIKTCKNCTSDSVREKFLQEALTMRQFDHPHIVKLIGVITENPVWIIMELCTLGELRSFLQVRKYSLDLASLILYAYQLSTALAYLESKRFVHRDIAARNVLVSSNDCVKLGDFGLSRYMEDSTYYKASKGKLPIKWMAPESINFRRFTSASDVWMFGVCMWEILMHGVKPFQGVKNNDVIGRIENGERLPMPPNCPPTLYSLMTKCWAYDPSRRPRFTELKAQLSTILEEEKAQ
VEGFR3 cytoplasmic domain (Homo sapiens, UniProt P35916), sequence (P35916 25-1363 limits assumed): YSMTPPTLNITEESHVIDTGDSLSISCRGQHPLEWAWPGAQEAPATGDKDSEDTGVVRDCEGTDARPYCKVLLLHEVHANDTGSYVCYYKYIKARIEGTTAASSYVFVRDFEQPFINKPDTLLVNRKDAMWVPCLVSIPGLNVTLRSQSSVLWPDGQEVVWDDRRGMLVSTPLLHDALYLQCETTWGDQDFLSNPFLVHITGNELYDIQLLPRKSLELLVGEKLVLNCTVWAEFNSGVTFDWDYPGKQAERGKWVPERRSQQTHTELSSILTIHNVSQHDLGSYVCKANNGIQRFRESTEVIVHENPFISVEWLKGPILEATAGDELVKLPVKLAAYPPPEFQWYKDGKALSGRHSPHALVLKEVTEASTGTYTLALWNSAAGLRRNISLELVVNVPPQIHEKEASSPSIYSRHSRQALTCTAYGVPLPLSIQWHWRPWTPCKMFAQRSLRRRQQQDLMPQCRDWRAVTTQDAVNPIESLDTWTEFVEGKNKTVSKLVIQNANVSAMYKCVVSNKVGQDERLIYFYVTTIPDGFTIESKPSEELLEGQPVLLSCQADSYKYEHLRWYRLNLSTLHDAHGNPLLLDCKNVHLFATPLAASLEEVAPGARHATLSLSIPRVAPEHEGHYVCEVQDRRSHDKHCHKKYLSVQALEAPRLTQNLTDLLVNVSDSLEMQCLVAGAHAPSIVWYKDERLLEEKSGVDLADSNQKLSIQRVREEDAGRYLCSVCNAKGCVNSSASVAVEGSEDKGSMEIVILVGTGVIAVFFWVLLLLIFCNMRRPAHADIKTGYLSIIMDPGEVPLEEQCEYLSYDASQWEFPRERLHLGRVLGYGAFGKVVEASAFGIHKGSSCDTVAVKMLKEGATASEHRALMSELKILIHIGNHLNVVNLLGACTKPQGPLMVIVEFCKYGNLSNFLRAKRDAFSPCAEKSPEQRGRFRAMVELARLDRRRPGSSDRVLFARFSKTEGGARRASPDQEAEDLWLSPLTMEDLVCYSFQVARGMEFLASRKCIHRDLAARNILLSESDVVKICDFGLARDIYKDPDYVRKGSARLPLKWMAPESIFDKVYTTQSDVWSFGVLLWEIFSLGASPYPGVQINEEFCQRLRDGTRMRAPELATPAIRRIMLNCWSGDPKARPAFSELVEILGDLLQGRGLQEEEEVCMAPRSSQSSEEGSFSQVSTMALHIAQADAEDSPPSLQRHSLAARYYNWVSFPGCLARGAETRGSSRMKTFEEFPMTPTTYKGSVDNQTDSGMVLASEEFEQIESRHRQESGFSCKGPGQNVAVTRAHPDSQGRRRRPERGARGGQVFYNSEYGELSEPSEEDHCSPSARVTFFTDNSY
N-terminally GST-fused purified FAK enzyme, sequence (Q05397 whole entry, the tested form may be a part): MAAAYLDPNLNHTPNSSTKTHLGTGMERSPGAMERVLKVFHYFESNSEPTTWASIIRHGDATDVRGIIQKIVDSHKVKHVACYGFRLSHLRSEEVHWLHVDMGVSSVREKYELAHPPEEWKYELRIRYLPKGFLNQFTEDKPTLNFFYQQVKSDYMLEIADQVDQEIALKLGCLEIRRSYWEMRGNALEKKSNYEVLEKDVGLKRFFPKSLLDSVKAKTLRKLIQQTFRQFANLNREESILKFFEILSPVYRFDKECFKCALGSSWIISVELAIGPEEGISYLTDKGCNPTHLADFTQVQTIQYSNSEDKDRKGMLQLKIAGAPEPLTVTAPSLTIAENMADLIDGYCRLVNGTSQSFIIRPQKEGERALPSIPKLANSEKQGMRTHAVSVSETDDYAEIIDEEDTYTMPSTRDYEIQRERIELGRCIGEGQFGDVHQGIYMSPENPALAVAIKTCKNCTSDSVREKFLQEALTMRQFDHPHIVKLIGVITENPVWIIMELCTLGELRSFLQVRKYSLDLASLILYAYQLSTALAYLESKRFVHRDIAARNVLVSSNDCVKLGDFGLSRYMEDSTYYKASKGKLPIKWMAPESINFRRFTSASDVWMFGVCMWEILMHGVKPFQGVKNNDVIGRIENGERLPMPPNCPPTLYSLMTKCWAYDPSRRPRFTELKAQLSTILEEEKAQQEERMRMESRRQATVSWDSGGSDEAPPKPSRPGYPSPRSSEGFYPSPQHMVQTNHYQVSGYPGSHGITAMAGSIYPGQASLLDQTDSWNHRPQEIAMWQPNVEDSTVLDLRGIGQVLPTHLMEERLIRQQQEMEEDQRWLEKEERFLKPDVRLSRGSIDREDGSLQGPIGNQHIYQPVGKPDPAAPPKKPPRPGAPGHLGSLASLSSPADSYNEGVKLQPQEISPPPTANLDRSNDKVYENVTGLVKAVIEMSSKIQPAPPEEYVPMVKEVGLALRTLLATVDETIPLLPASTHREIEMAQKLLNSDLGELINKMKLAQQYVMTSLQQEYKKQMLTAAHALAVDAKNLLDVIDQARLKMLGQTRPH
VEGFR3 cytoplasmic domain (Homo sapiens, UniProt P35916, DEL949-1002), sequence (P35916 with tags, fused parts or gaps DEL949-1002 limits assumed): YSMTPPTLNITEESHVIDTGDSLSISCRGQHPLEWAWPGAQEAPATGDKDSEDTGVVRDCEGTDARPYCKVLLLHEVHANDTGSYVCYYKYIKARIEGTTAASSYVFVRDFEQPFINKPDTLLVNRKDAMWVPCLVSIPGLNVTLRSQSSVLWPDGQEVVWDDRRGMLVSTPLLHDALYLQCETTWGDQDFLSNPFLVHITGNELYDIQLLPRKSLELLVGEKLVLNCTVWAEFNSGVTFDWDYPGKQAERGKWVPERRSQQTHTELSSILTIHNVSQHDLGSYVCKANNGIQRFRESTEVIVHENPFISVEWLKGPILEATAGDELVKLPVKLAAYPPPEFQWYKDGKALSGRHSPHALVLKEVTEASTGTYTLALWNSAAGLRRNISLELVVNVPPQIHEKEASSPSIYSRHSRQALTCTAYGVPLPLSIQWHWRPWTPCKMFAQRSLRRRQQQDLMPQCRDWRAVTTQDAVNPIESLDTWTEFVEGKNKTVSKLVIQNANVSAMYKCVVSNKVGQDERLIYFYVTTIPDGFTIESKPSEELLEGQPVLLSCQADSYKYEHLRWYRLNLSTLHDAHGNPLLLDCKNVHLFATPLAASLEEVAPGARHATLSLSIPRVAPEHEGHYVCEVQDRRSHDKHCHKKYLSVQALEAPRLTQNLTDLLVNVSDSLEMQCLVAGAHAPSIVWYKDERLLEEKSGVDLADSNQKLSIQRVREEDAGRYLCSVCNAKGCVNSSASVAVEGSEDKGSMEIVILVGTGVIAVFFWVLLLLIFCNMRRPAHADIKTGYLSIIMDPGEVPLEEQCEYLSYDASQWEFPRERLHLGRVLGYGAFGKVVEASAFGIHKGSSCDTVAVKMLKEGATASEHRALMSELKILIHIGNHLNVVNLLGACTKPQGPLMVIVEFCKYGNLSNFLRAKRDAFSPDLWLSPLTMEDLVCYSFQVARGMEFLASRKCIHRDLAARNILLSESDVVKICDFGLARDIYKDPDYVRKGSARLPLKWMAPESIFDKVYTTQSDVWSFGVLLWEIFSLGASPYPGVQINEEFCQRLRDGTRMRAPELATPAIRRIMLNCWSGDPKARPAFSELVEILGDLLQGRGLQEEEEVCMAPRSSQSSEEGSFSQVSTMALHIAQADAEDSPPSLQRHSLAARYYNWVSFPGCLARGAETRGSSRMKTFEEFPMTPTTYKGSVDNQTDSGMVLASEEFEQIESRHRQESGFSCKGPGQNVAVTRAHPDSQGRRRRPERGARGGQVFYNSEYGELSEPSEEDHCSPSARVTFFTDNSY
FAK, sequence (Q05397 whole entry): as the sequence (Q05397 whole entry, the tested form may be a part) above

`COc1cc(N2CCNCC2)ccc1Nc1ncc(C(F)(F)F)c(CCc2ccccc2CC(N)=O)n1` [Compound 1, 2-(2-(2-(2-((2-Methoxy-4-(piperazin-1-yl)phenyl)amino)-5-(trifluoromethyl)pyrimidin-4-yl)ethyl)phenyl)acetamide] showed an IC50 (MDA-231-LNA cells) of 1430 nM, a Kd ([1]; Biacore S51, 25° C.) of 0.29 nM and an IC50 [2] of 1.9 nM. For the same compound, the IC50 [3] was 275 nM.
`COc1cc(C2CCNCC2)ccc1Nc1ncc(C(F)(F)F)c(CCc2ccccc2CC(N)=O)n1` [Compound 2, 2-(2-(2-(2-((2-Methoxy-4-(piperidin-4-yl)phenyl)amino)-5-(trifluoromethyl)pyrimidin-4-yl)ethyl)phenyl)acetamide] gave an IC50 (MDA-231-LNA cells) of 2770 nM, a Kd ([1]; Biacore S51, 25° C.) of 0.74 nM and an IC50 [2] of 7.1 nM. The IC50 [3] was 3680 nM.
For `COc1cc(C2CCN(C)CC2)ccc1Nc1ncc(C(F)(F)F)c(CCc2ccccc2CC(N)=O)n1` [Compound 3, 2-(2-(2-(2-((2-Methoxy-4-(1-methylpiperidin-4-yl)phenyl)amino)-5-(trifluoromethyl)pyrimidin-4-yl)ethyl)phenyl)acetamide], the IC50 (MDA-231-LNA cells) was 6620 nM, the Kd ([1]; Biacore S51, measured using an extended washing step of 30 minutes) was 0.21 nM and the IC50 [2] was 2.2 nM. For the same compound, the “TGI based on tumour weight” value (MDA-231-LNA tumours) was 42% and the IC50 [4] was 538 nM.
For `CCN1CCC(c2ccc(Nc3ncc(C(F)(F)F)c(CCc4ccccc4CC(N)=O)n3)c(OC)c2)CC1` [Compound 4, 2-(2-(2-(2-((4-(1-Ethylpiperidin-4-yl)-2-methoxyphenyl)amino)-5-(trifluoromethyl)pyrimidin-4-yl)ethyl)phenyl) acetamide], the IC50 (MDA-231-LNA cells) was 1910 nM, the Kd ([1]; Biacore S51, 25° C.) was 1.5 nM and the IC50 [2] was 3.6 nM.
`COc1cc(C2CCNCC2)ccc1Nc1ncc(C(F)(F)F)c(CCc2cccc(C(N)=O)c2)n1` [Compound 5, 3-(2-(2-((2-Methoxy-4-(piperidin-4-yl)phenyl)amino)-5-(trifluoromethyl)pyrimidin-4-yl)ethyl)benzamide] showed an IC50 (MDA-231-LNA cells) of 3060 nM, an IC50 [2] of 7.2 nM and an IC50 [3] of 5750 nM.
`COc1cc(C2CCN(C)CC2)ccc1Nc1ncc(C(F)(F)F)c(CCc2cccc(C(N)=O)c2)n1` [Compound 6, 3-(2-(2-((2-Methoxy-4-(1-methylpiperidin-4-yl)phenyl)amino)-5-(trifluoromethyl)pyrimidin-4-yl)ethyl)benzamide] showed an IC50 (MDA-231-LNA cells) of 2240 nM, a Kd ([1]; Biacore S51, 25° C.) of 2.9 nM and an IC50 [2] of 2.1 nM. For the same compound, the IC50 [4] was 10400 nM.
`CCN1CCC(c2ccc(Nc3ncc(C(F)(F)F)c(CCc4cccc(C(N)=O)c4)n3)c(OC)c2)CC1` [Compound 7] gave an IC50 (MDA-231-LNA cells) of 4930 nM, an IC50 [2] of 9.4 nM and an IC50 [3] of 13300 nM.
For `CCc1cc(C2CCNCC2)ccc1Nc1ncc(C(F)(F)F)c(CCc2ccccc2CC(N)=O)n1` [Compound 8, 2-(2-(2-(2-((2-Ethyl-4-(piperidin-4-yl)phenyl)amino)-5-(trifluoromethyl)pyrimidin-4-yl)ethyl)phenyl)acetamide], the IC50 (MDA-231-LNA cells) was 2480 nM and the IC50 [4] was 1180 nM.
Work on `CCc1cc(C2CCN(C)CC2)ccc1Nc1ncc(C(F)(F)F)c(CCc2ccccc2CC(N)=O)n1` [Compound 9, 2-(2-(2-(2-((2-Ethyl-4-(1-methylpiperidin-4-yl)phenyl)amino)-5-(trifluoromethyl)pyrimidin-4-yl)ethyl)phenyl)acetamide] yielded an IC50 (MDA-231-LNA cells) of 2900 nM.
For `NC(=O)Cc1ccccc1CCc1nc(Nc2ccc(C3CCNCC3)cc2OC(F)(F)F)ncc1C(F)(F)F` [Compound 10, 2-(2-(2-(2-((4-(Piperidin-4-yl)-2-(trifluoromethoxy)phenyl)amino)-5-(trifluoromethyl)pyrimidin-4-yl)ethyl)phenyl)acetamide], the IC50 (MDA-231-LNA cells) was 1690 nM, the Kd ([1]; Biacore S51, 25° C.) was 0.79 nM and the IC50 [2] was 2.7 nM. For the same compound, the IC50 [4] was over 66000 nM.
For `CN1CCC(c2ccc(Nc3ncc(C(F)(F)F)c(CCc4ccccc4CC(N)=O)n3)c(OC(F)(F)F)c2)CC1` [Compound 11, 2-(2-(2-(2-((4-(1-Methylpiperidin-4-yl)-2-(trifluoromethoxy)phenyl)amino)-5-(trifluoromethyl)pyrimidin-4-yl)ethyl)phenyl)acetamide], the IC50 (MDA-231-LNA cells) was 2580 nM, the Kd ([1]; Biacore S51, 25° C.) was 1.7 nM and the IC50 [2] was 2.2 nM. For the same compound, the IC50 [4] was 59800 nM.
`CN1CCC(c2ccc(Nc3ncc(C(F)(F)F)c(CCc4ccccc4CC(N)=O)n3)c(F)c2)CC1` [Compound 13, 2-(2-(2-(2-((2-Fluoro-4-(1-methylpiperidin-4-yl)phenyl)amino)-5-(trifluoromethyl)pyrimidin-4-yl)ethyl)phenyl)acetamide] showed an IC50 (MDA-231-LNA cells) of 2760 nM, an IC50 [2] of 5.6 nM and an IC50 [4] of 205 nM.
For `CNC(=O)c1ccccc1Nc1nc(Nc2ccc(N3CCOCC3)cc2OC)ncc1Cl` [TAE226], the “phosphorylation of FAK at Y397 and Y861 sites” value (FAK) is given as “inhibited”, the cell growth ([5]; in vitro) is given as “inhibited cell growth in a time- and dose-dependent manner” and the “enhancement of docetaxel-mediated growth inhibition” value ([5]; taxane-resistant cell lines) is given as 20 fold. For the same compound, the “enhancement of docetaxel-mediated growth inhibition” value ([5]; taxane-sensitive cell lines) was 10 fold and the “reduction of tumour burden compared with vehicle-treated controls” value [6] was 46-64%.
